The values below come from the NIST ThermoML archive (doi:10.1021/je900370q).

Numbers after ± are expanded uncertainties.

The conditions of this data set: Crystal; DTA.
On to `O=C(/C=C/c1ccc(-c2cccc([N+](=O)[O-])c2)o1)c1ccccc1` [(E)-3-(5-(3-nitrophenyl)furan-2-yl)-1-phenylprop-2-en-1-one], for which the Normal melting temperature came to 142.00 ± 1 °C.

For the compound `Nc1ccc(C(=O)/C=C/c2ccc(-c3cccc([N+](=O)[O-])c3)o2)cc1`, the Normal melting temperature amounted to 171.00 ± 1 °C. `O=C(/C=C/c1ccc(-c2cccc([N+](=O)[O-])c2)o1)c1ccc(O)cc1`: the Normal melting temperature stood at 152.00 ± 1 °C. As to `O=C(/C=C/c1ccc(-c2cccc([N+](=O)[O-])c2)o1)c1ccc(Cl)cc1`, the Normal melting temperature is 170.00 ± 1 °C. As for `O=C(/C=C/c1ccc(-c2cccc([N+](=O)[O-])c2)o1)c1cccc([N+](=O)[O-])c1`, the Normal melting temperature stood at 180.00 ± 1 °C. Consider `COc1ccc(C(=O)/C=C/c2ccc(-c3cccc([N+](=O)[O-])c3)o2)cc1`, for which the Normal melting temperature was 141.00 ± 1 °C.

For `O=C(/C=C/c1ccc(-c2cccc([N+](=O)[O-])c2)o1)c1ccco1`, the Normal melting temperature came out at 178.00 ± 1 °C. Take `O=C(/C=C/c1ccc(-c2cccc([N+](=O)[O-])c2)o1)c1ccc(Br)cc1`: the Normal melting temperature was 160.00 ± 1 °C. On to `O=C(/C=C/c1ccc(-c2cccc([N+](=O)[O-])c2)o1)c1cc2ccccc2oc1=O`, for which the Normal melting temperature was determined as 172.00 ± 1 °C. With `O=C(/C=C/c1ccc(-c2cccc([N+](=O)[O-])c2)o1)c1ccc([N+](=O)[O-])cc1` the figure was 218.00 ± 1 °C.
